By IC50 is commonly meant the concentration that gives 50% inhibition.

Where a name gives a salt, the structure may show the parent alone. Where only a bound is given, the exact number is not on record here.

In the assay the target is KHK (Homo sapiens (Human), UniProt P50053). In words: In Vitro KHK Enzyme Assay (HTMS).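 Note: primary screen measuring inhibition of KHK-catalysed conversion of D-fructose into fructose 1-phosphate.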 Type of assay: biochemical. The following applies: 200 μM fructose, 100 μM ATP, 2 nM KHK, 60 min at 25° C.; Fructose-1-P detected by high throughput mass spectrometry.
Chain of KHK (P50053 whole entry): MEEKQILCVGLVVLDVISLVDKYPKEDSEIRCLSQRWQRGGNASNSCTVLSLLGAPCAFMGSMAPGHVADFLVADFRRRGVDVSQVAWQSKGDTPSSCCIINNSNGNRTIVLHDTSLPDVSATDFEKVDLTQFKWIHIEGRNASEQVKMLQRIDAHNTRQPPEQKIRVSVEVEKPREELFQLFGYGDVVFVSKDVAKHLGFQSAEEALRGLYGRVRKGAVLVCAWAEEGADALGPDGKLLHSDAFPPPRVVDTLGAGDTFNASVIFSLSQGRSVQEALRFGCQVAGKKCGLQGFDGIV
`COc1nn(-c2ccccc2)c2cc(N3CCN(C4CNC4)CC3)ccc12` [Compound 74, 6-(4-(Azetidin-3-yl)piperazin-1-yl)-3-methoxy-1-phenyl-1H-indazole hydrochloride] displayed an IC50 of 5960 nM.

In the case of `CSc1nn(-c2ccccc2)c2cc(NC(=O)NC3CCNC3)ccc12` (stereo not shown) [Compound 4, 1-(3-(Methylthio)-1-phenyl-1H-indazol-6-yl)-3-(pyrrolidin-3-yl)urea hydrochloride], the IC50 is 450 nM.

Compound `CCc1nn(-c2ccccc2)c2nc(C3CCN(c4cccnc4)CC3)nc(O)c12` [Compound 93, 3-Ethyl-1-phenyl-6-(3,4,5,6-tetrahydro-2H-[1,3′]bipyridinyl-4-yl)-1H-pyrazolo[3,4-d]pyrimidin-4-ol] returned an IC50 of 7900 nM.

Take `CCc1nn(-c2ccccc2)c2cc(N3CCN(C4CCNC4)C3=O)ccc12` (stereo not shown) [Compound 48, 1-(3-Ethyl-1-phenyl-1H-indazol-6-yl)-3-(pyrrolidin-3-yl)imidazolidin-2-one hydrochloride]: the IC50 was determined as 2370 nM.

In turn, `COc1nn(-c2ccccc2)c2cc(N3CCN(C4CCNCC4)CC3)ccc12` [Compound 76, 3-Methoxy-1-phenyl-6-(4-(piperidin-4-yl)piperazin-1-yl)-1H-indazole hydrochloride] yielded an IC50 of 1380 nM.

Compound `CSc1nn(-c2ccccc2)c2cc(N3CCN(C4CCNC4)CC3)ccc12` (stereo not shown) [Compound 22, 3-(Methylthio)-1-phenyl-6-(4-(pyrrolidin-3-yl)piperazin-1-yl)-1H-indazole hydrochloride] returned a half-inhibitory concentration (IC50) of 4450 nM.

Regarding `Cc1nn(-c2ccccc2)c2nc(CC3CCN(C4CNC4)CC3)nc(O)c12` [Compound 90, 6-(1-Azetidin-3-yl-piperidin-4-ylmethyl)-3-methyl-1-phenyl-1H-pyrazolo[3,4-d]pyrimidin-4-ol], the IC50 is greater than 30000 nM.

In turn, `COc1nn(-c2ccccc2)c2cc(N3CCN(C4CCNC4)CC3)ccc12` (stereo not shown) [Compound 75, 3-Methoxy-1-phenyl-6-(4-(pyrrolidin-3-yl)piperazin-1-yl)-1H-indazole hydrochloride] gave an IC50 of 310 nM. That is a sub-micromolar value.

`CSc1nn(-c2ccccc2)c2cc(C(=O)c3ccc4nonc4c3)ccc12` [Compound 174, Benzo[1,2,5]oxadiazol-5-yl-(3-methylsulfanyl-1-phenyl-1H-indazol-6-yl)-methanone] gave an IC50 greater than 10000 nM.

Consider `COc1ccc(-n2nc(SC)c3ccc(C4=CCNCC4)cc32)cc1` [Compound 140, 1-(4-Methoxy-phenyl)-3-methylsulfanyl-6-(1,2,3,6-tetrahydro-pyridin-4-yl)-1H-indazole], for which the IC50 was determined as 90 nM.

As to `Cc1nn(-c2ccccc2)c2cc(N3CCC(N4CCNCC4)C3)ccc12` (stereo not shown) [Compound 61, 3-Methyl-1-phenyl-6-(3-(piperazin-1-yl)pyrrolidin-1-yl)-1H-indazole hydrochloride], 1010 nM corresponded to half-maximal inhibition (IC50).

Consider `CSc1nn(-c2cccc(F)c2)c2cc(C3=CCNCC3)ccc12` [Compound 179, 1-(3-Fluoro-phenyl)-3-methylsulfanyl-6-(1,2,3,6-tetrahydro-pyridin-4-yl)-1H-indazole], for which the IC50 was 40 nM.

`Cc1nn(-c2ccccc2)c2nc(-c3ccc(NC4CCNCC4)cc3)cc(O)c12` [Compound 101, 3-Methyl-1-phenyl-6-[4-(piperidin-4-ylamino)-phenyl]-1H-pyrazolo[3,4-b]pyridin-4-ol] displayed an IC50 of 890 nM.

`CCc1nn(-c2ccccc2)c2nc(-c3ccc(NC4CCNCC4)cc3)cc(O)c12` [Compound 100, 3-Ethyl-1-phenyl-6-[4-(piperidin-4-ylamino)-phenyl]-1H-pyrazolo[3,4-b]pyridin-4-ol]: the IC50 was determined as 1720 nM.

In turn, `CSc1nn(-c2ccccc2)c2cc(NC(=O)CN3CCNCC3)ccc12` [Compound 131, N-(3-Methylsulfanyl-1-phenyl-1H-indazol-6-yl)-2-piperazin-1-yl-acetamide] yielded a half-maximal inhibitory concentration (IC50) of 680 nM.

In turn, `CSc1nn(-c2ccccc2)c2cc(OC3CCNCC3)ccc12` [Compound 121, 3-Methylsulfanyl-1-phenyl-6-(piperidin-4-yloxy)-1H-indazole] gave an IC50 of 710 nM. The IC50 values of the last two compounds are within 1.5-fold of each other.

For `CSc1nn(-c2ccccc2)c2cc(NCC3CCNCC3)ccc12` [Compound 112, (3-Methylsulfanyl-1-phenyl-1H-indazol-6-yl)-piperidin-4-ylmethyl-amine], the IC50 turned out to be 420 nM.

Regarding `CSc1nn(-c2cccc(C)c2)c2cc(N3CCN(C4CCNCC4)CC3)ccc12` [Compound 119, 3-Methylsulfanyl-6-(4-piperidin-4-yl-piperazin-1-yl)-1-m-tolyl-1H-indazole], it took 380 nM to reach half-maximal inhibition (IC50). The IC50 values of the last two compounds are within 1.5-fold of each other.

`CSc1nn(-c2ccc(F)cc2)c2cc(N3CCN(C4CCNCC4)CC3)ccc12` [Compound 135, 1-(4-Fluoro-phenyl)-3-methylsulfanyl-6-(4-piperidin-4-yl-piperazin-1-yl)-1H-indazole] gave an IC50 of 1650 nM.

`CSc1nn(-c2ccc(Br)cc2)c2cc(OCC3CCNCC3)ccc12` [Compound 128, 1-(4-Bromo-phenyl)-3-methylsulfanyl-6-(piperidin-4-ylmethoxy)-1H-indazole]: half-maximal inhibition (IC50) required 920 nM. Compared with the last compound, the IC50 is about 1.8-fold lower.

Consider `CSc1nn(-c2ccccc2C)c2cc(C3=CCNCC3)ccc12` [Compound 180, 3-Methylsulfanyl-6-(1,2,3,6-tetrahydro-pyridin-4-yl)-1-o-tolyl-1H-indazole], for which the IC50 is greater than 10000 nM.

Take `CCc1nn(-c2ccccc2)c2cc(N3CCN(CC)CC3)ccc12` [Compound 55, 3-Ethyl-6-(4-ethylpiperazin-1-yl)-1-phenyl-1H-indazole]: half-maximal inhibition (IC50) required 11500 nM.

`CSc1nn(-c2ccccc2)c2cc(N3CCN(C(=O)C4CCCCN4)CC3)ccc12` (stereo not shown) [Compound 35, (4-(3-(Methylthio)-1-phenyl-1H-indazol-6-yl)piperazin-1-yl)(piperidin-2-yl)methanone] showed an IC50 of 430 nM.

In turn, `COc1cc(-c2ccc(N3CCNCC3)cc2)nc2c1c(C)nn2-c1ccccc1` [Compound 99, 4-Methoxy-3-methyl-1-phenyl-6-(4-piperazin-1-yl-phenyl)-1H-pyrazolo[3,4-b]pyridine] returned an IC50 of 600 nM.

As to `CSc1nn(-c2ccccc2)c2cc(N3CCN(c4ccccn4)CC3)ccc12` [Compound 24, 3-(Methylthio)-1-phenyl-6-(4-(pyridin-2-yl)piperazin-1-yl)-1H-indazole], the half-inhibitory concentration (IC50) amounted to 1560 nM.

Turning to `CSc1nn(-c2ccccc2)c2cc(NC(=O)C3CCCNC3)ccc12` (stereo not shown) [Compound 12, N-(3-(Methylthio)-1-phenyl-1H-indazol-6-yl)piperidine-3-carboxamide hydrochloride], the IC50 turned out to be 310 nM. This IC50 lies about 5-fold lower than the previous one.

`CCc1nn(-c2ccccc2)c2cc(N3CCC(N4CCNCC4)C3)ccc12` (stereo not shown) [Compound 43, 3-Ethyl-1-phenyl-6-(3-(piperazin-1-yl)pyrrolidin-1-yl)-1H-indazole hydrochloride]: half-maximal inhibition (IC50) required 2350 nM.

`CSc1nn(-c2ccccc2)c2cc(N3CCN(C(=O)c4ccncc4)CC3)ccc12` [Compound 17, (4-(3-(Methylthio)-1-phenyl-1H-indazol-6-yl)piperazin-1-yl)(pyridin-4-yl)methanone]: 2030 nM corresponded to half-maximal inhibition (IC50).

Compound `Cc1nn(-c2ccccc2)c2cc(N3CCN(C(C)C)CC3)ccc12` [Compound 70, 6-(4-Isopropylpiperazin-1-yl)-3-methyl-1-phenyl-1H-indazole formic acid salt] registered an IC50 of 14700 nM.

Turning to `CCc1nn(-c2ccccc2)c2nc(N3CCN(C4CNC4)CC3)ncc12` [Compound 82, 6-(4-Azetidin-3-yl-piperazin-1-yl)-3-ethyl-1-phenyl-1H-pyrazolo[3,4-d]pyrimidine], half-maximal inhibition (IC50) was put at 23000 nM.

The compound `CCc1nn(-c2ccccc2)c2cc(NC(=O)c3ccc4[nH]cnc4c3)ccc12` [Compound 38, N-(3-Ethyl-1-phenyl-1H-indazol-6-yl)-1H-benzo[d]imidazole-5-carboxamide] gave an IC50 of 940 nM.

Take `CSc1nn(-c2ccccc2)c2cc(NC(=O)C3CCNC3)ccc12` (stereo not shown) [Compound 5, N-(3-(Methylthio)-1-phenyl-1H-indazol-6-yl)pyrrolidine-3-carboxamide hydrochloride]: the half-inhibitory concentration (IC50) amounted to 590 nM. This IC50 is about 1.6-fold lower than that of the compound before.

`CSc1nn(-c2cc(F)cc(F)c2)c2cc(N3CCN(C4CCNCC4)CC3)ccc12` [Compound 126, 1-(3,5-Difluoro-phenyl)-3-methylsulfanyl-6-(4-piperidin-4-yl-piperazin-1-yl)-1H-indazole] registered an IC50 of 4220 nM.

In turn, `CSc1nn(-c2ccccc2)c2cc(N3CCNCC3)ccc12` [Compound 1, 3-(Methylsulfanyl)-1-phenyl-6-piperazin-1-yl-1H-indazole HCl salt] had an IC50 of 560 nM. This IC50 is about 7.5-fold lower than that of the compound before.

In turn, `CSc1nn(-c2ccccc2)c2cc(N3CCN(c4ccncc4)CC3)ccc12` [Compound 29, 3-(Methylthio)-1-phenyl-6-(4-(pyridin-4-yl)piperazin-1-yl)-1H-indazole] gave an IC50 of 300 nM. Compared with the last compound, the IC50 is about 1.9-fold lower.

Compound `Cc1nn(-c2ccccc2)c2nc(-c3ccc(N4CCNCC4)cc3)cc(O)c12` [Compound 97, 3-Methyl-1-phenyl-6-(4-piperazin-1-yl-phenyl)-1H-pyrazolo[3,4-b]pyridin-4-ol] showed an IC50 of 2710 nM.

On to `CCc1nn(-c2ccccc2)c2nc(C3CCN(C4CCNC4)CC3)nc(O)c12` (stereo not shown) [Compound 94, 3-Ethyl-1-phenyl-6-(1-pyrrolidin-3-yl-piperidin-4-yl)-1H-pyrazolo[3,4-d]pyrimidin-4-ol hydrochloride], for which the concentration for half-maximal inhibition (IC50) is 5270 nM.

The compound `CSc1nn(-c2ccccc2)c2cc(N3CC4CC3CN4)ccc12` (stereo not shown) [Compound 10, 2-(3-(methylthio)-1-phenyl-1H-indazol-6-yl)-2,5-diaza-bicyclo[2.2.1]heptane hydrochloride] gave an IC50 of 710 nM.

`CSc1nn(-c2ccccc2)c2cc(NC(=O)C3(C)CCNCC3)ccc12` [Compound 158, 4-Methyl-piperidine-4-carboxylic acid (3-methylsulfanyl-1-phenyl-1H-indazol-6-yl)-amide] showed an IC50 of 700 nM.

As to `Cc1nn(-c2ccccc2)c2cc(N3CCN(c4ccncc4)CC3)ccc12` [Compound 65, 3-Methyl-1-phenyl-6-(4-(pyridin-4-yl)piperazin-1-yl)-1H-indazole hydrochloride], the midpoint of inhibition, the IC50, lay at 7730 nM.
